“Also recorded” adds a separate entry of the source.

One assay has as its system C57 BL/6 mice. Description: Oral glucose tolerance test in S961-induced insulin resistance mice. The class given is in vivo, mouse. The following applies: D-glucose 2 g/kg; for hypoglycemic efficacy, OGTT blood glucose AUC: S961 50 nmol/kg Bwt, enantiomer 50 mg/kg Bwt p.o., FIG. 7(B). The procedure:
(§1) Animal experiments were approved by the National Dong-Hwa University Animal Ethics Committee and were used according to the “Guide for the Care and Use of Laboratory Animals” of National Dong-Hwa University. C57BL/6 mouse and Imprinting Control Region (ICR) mouse were obtained National Laboratory Animal Center (Taipei, Taiwan) and kept at controlled environmental conditions with room temperature (22±2° C.) and humidity (50±10%). The 12 h light (0600 am-1800 pm) and 12 h dark cycle was maintained throughout the study. Mice had free access to food and water and maintained on a standard laboratory diet (carbohydrates; 60%, proteins; 28%, lipids; 12%, vitamins; 3%).
(§2) Mice were employed to this test after fasting 12 h. Mice were treated with D-glucose by oral gavage (2 g/kg, p.o.). At approximately 0, 30, 60, 90, and 120 min, blood was sampled by venipuncture from the tail vein for the determining blood glucose. Blood glucose was immediately determined by the glucose oxidase method using glucose analyzer (Accu-Chek, Roche).
8 weeks old male C57 BL/6 mice were employed to this test after fasting 12 h. To investigate the effect of natural compounds on the 5961 (insulin receptor antagonist, Novo-Nordisk, Denmark) induced hyperglycemia, mice was intraperitoneally injected (i.p.) S961 (50 nmol/kg Bwt) at 15 min prior to oral gavaged (p.o.) with antroquinonol (dissolved in PEG and EtoH, 50 mg/kg Bwt) and D-glucose (2 g/kg Bwt). At approximately 0, 30, 60, 90, and 120 min, blood was sampled by venipuncture from the tail vein for OGTT test.

The target of assay [1] is T1, Dipeptidyl peptidase-4 (DPP4) (Homo sapiens, UniProt P27487).
T1 construct: purchased Enzo BML-AK498
T1 sequence (P27487 whole entry): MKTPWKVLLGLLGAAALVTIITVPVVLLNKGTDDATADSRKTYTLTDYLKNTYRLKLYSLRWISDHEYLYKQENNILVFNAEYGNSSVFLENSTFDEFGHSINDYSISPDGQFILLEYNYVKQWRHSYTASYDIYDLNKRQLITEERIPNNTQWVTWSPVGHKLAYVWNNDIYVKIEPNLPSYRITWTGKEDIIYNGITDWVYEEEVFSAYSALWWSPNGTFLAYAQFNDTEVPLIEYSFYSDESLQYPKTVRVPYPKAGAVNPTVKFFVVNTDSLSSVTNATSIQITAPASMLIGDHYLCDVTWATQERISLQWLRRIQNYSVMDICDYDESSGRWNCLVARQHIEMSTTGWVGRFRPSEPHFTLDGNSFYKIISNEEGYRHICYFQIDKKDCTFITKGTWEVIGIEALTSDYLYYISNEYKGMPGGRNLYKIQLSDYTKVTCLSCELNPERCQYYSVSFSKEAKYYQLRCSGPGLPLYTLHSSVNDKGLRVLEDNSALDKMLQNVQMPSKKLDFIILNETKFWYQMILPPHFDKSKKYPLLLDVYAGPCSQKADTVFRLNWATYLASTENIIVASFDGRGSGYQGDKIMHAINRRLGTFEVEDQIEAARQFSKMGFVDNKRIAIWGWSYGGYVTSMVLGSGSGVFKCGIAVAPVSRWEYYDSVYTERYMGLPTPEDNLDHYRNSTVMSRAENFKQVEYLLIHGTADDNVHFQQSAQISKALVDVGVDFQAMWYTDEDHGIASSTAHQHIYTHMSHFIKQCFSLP
In words: DPP4 enzyme activity (DPPIV/CD26 Assay Kit). The class given is biochemical. The following applies: 100 μM, 30 min at RT; FIG. 2. As to the method: Dipeptidyl peptidase-4 (DPP4), also known as adenosine deaminase complexing protein 2 or CD26 (cluster of differentiation 26), is […]. DPP4 enzyme activity was measured by a DPPIV/CD26 Assay Kit (BML-AK498, Enzo, N.Y., USA). This assay is based on the cleavage of the p-nitroaniline (pNA) from the chromogenic substrate (H-Gly-Pro-pNA) to increase the absorbance at 405 nm. Firstly 50 μL of assay buffer (50 mM Glycine, pH 8.7, 1 mM EDTA) per will was added into the 96-well clear microplate, and then 20 μL of DPP4 enzyme (13 μU/μL), 20 μL of tested inhibitors, 100 μM of antroquinonol or known clinical drug sitagliptin, and finally 10 μL of pNA substrate were added to each well sequentially. After an incubation of reaction mixture at room temperature (RT) for 30 min, the absorbance of each sample was read at 405 nm by the ELISA plate reader (Thermo Labsystems, Opsys MR, Thermo fisher scientific).

A further assay has as its system PKA protein level. Description: Glucagon like peptide-1 induced PKA protein level, Western blot in AR42J cells. The class given is cell-based, rat. The following applies: 5 μM and 20 μM, with 1 nM GLP-1 or 1 nM exendin-4, 48 h, FIG. 4. As to the method: Rat pancreas tumor cells (AR42J) were obtained from the Food Industry Research and Development Institute (FIRDI, Hsinchu, Taiwan). The cells were grown and maintained in DMEM (GIBCO) supplemented with 20% fetal bovine serum (FBS, GIBCO) and 1% penicillin streptomycin (GIBCO) and 2 mM of L-glutamin in a cell culture incubator with 5% CO2 at 37° C. Prior to the experiments, the cells were seeded and cultured for 16-24 h.
(§3) After treatments, the cells were collected and washed twice in cold KRH buffer (containing 50 mM HEPES, 137 mM NaCl, 4.8 mM KCl, 1.85 mM CaCl2, 1.3 mM MgSO4), and then lysed in ice-cold RIPA buffer (containing 50 mM Tris-HCl, pH 8.0, 150 mM NaCl, 5 mM NaF, 1% NP40, 1 mM sodium orthovanadate, 0.5% sodium deoxycholate, 0.1% sodium dodecyl sulphate (SDS), protease inhibitors, and phosphatase inhibitors (DE-68305, Roche, Mannheim, Germany)) and incubated at 4° C. for 60 min. After centrifugation of the cells at 12,000×g at 4° C. for 30 min, the supernatant was kept and quantified by Bradford protein assay (Bio-Rad, Hercules, Calif., USA). […] The signals were monitored using Western Lightning™ Plus-ECL (Perkin Elmer Life Sciences) and the PVDF membrane was exposed to Luminescent image analyzer (LAS)-3000 (Fujifilm, Minato, Tokyo, Japan). The acquired data were analyzed and compared the difference among various treatments. […]
For orientation: In western blotting, separated proteins are transferred to a membrane and probed.

The test system of assay [2] is DIO ICR mice. In words: Long term glucose tolerance (OGTT) in diet-induced obesity (DIO) ICR mice. The class given is in vivo, mouse. The following applies: antroquinonol 25 mg/kg Bwt versus Sitagliptin 10 mg/kg Bwt, q.o.d. for 4 weeks, FIG. 9. As to the method: as §1, §2
(§4) 8 weeks old ICR male mice were induced with high fat die and 60% fructose water for 10 weeks. […] Blood glucose was immediately determined by the glucose oxidase method using glucose analyzer (Accu-Chek, Roche), when blood sugar was sustained at higher level than 200 mg/dl after 120 min oral glucose that defined high blood sugar. […]

For assay [3], the system named is AMPK Thr172 phosphorylation. In words: AMPK Thr172 phosphorylation, Western blot in differentiated C2C12 cells. The class given is cell-based, mouse. The following applies: C2C12, 37° C., 30 min; insulin 100 nM, metformin 16 mM, antroquinonol 25 μM; FIG. 3(B). As to the method:
FIG. 3(B) provides the results of AMPK Thr172 phosphorylation induced by insulin, metformin (Met) and antroquinonol (Ant); wherein the differentiated C2C12 cells were incubated with 100 nM of insulin, 16 mM of metformin (Met), or 25 μM of antroquinonol (Ant) at 37° C. for 30 min, and then the cell lysates were separated by SDS-PAGE and blotted for phospho-AMPK Thr172; wherein the data were expressed as means with standard errors of mean (mean±SEM), and different letters represent the significant differences (p<0.05) among the various treatments.
Mouse muscle myoblast cells (C2C12) were obtained from the Food Industry Research and Development Institute (FIRDI, Hsinchu, Taiwan). […]
After treatments, the cells were collected and washed twice in cold KRH buffer (containing 50 mM HEPES, 137 mM NaCl, 4.8 mM KCl, 1.85 mM CaCl2, 1.3 mM MgSO4), and then lysed in ice-cold RIPA buffer (containing 50 mM Tris-HCl, pH 8.0, 150 mM NaCl, 5 mM NaF, 1% NP40, 1 mM sodium orthovanadate, 0.5% sodium deoxycholate, 0.1% sodium dodecyl sulphate (SDS), protease inhibitors, and phosphatase inhibitors (DE-68305, Roche, Mannheim, Germany)) and incubated at 4° C. for 60 min. After centrifugation of the cells at 12,000×g at 4° C. for 30 min, the supernatant was kept and quantified by Bradford protein assay (Bio-Rad, Hercules, Calif., USA). […]

Assay [4] relates to AKT Thr308 phosphorylation. Description: AKT Thr308 phosphorylation, Western blot in differentiated C2C12 cells. The class given is cell-based, mouse. The following applies: C2C12, 37° C., 30 min; insulin 100 nM, metformin 16 mM, antroquinonol 25 μM; FIG. 3(A). As to the method:
FIG. 3(A) provides the results of the AKT Thr308 phosphorylation induced by insulin, metformin (Met) and antroquinonol (Ant); wherein the differentiated C2C12 cells were incubated with 100 nM of insulin, 16 mM of metformin (Met), or 25 μM of antroquinonol (Ant) at 37° C. for 30 min, and then the cell lysates were separated by SDS-PAGE and blotted for phospho-AKT Thr308; wherein the data were expressed as means with standard errors of mean (mean±SEM), and different letters represent the significant differences (p<0.05) among the various treatments.
Mouse muscle myoblast cells (C2C12) were obtained from the Food Industry Research and Development Institute (FIRDI, Hsinchu, Taiwan). The cells were grown and maintained in Dulbecco's Modified Eagle's Medium containing high level of glucose (DMEM-high glucose; GIBCO, Carlsbad, Calif., USA) supplemented with 10% fetal bovine serum (FBS, GIBCO) and 1% penicillin streptomycin (GIBCO) in a cell culture incubator with 5% CO2 at 37° C. Prior to experiment, the cells were seeded and cultured at a density of 8×10^3 cells per well in 96-well plates or 2.5×10^5 cells per well in 6-well plates. […]
as §3

Assay [5] concerns DIO ICR mice. Description: Short term glucose tolerance (OGTT) in diet-induced obesity (DIO) ICR mice. The class given is in vivo, mouse. The following applies: antroquinonol 25 mg/kg Bwt versus Sitagliptin 20 mg/kg Bwt, 15 min before D-glucose 2 g/kg, FIG. 8. As to the method:
as §1, §2, §4

The subject of the next assay is GLUT4 translocation. Description: Measurement of GLUT4 translocation in differentiated C2C12 cells. The class given is cell-based, mouse. The following applies: FIG. 5(A). As to the method:
Mouse muscle myoblast cells (C2C12) were obtained from the Food Industry Research and Development Institute (FIRDI, Hsinchu, Taiwan). The cells were grown and maintained in Dulbecco's Modified Eagle's Medium containing high level of glucose (DMEM-high glucose; GIBCO, Carlsbad, Calif., USA) supplemented with 10% fetal bovine serum (FBS, GIBCO) and 1% penicillin streptomycin (GIBCO) in a cell culture incubator with 5% CO2 at 37° C. Prior to experiment, the cells were seeded and cultured at a density of 8×10^3 cells per well in 96-well plates or 2.5×10^5 cells per well in 6-well plates. After the myoblasts achieved 80% confluence, the cells were incubated for 4 days in DMEM—high glucose supplemented with 1% FBS and 1% horse serum induced differentiation to myotubes.
C2C12 was fully differentiated with DMEM supplemented with 1% FBS and 1% horse serum for 4 days. The cells were washed twice with PBS containing 0.1% BSA and subsequently incubated in PBS with or without the treatment with 185 μM insulin (Ins), 16 mM metformin (Met), or 50, 100, and 150 μM of antroquinonol (Ant) for 55 min (n=5 in each group) respectively, and then placed on ice and immediately fixed with 1% glutaraldehyde in PBS at RT for 10 min. […] HRP activity was determined by measuring the absorbance at 450 nm with a spectrophotometer (EnSpire 2300 Multilabel Reader, Perkin Elmer, Waltham, Mass., USA). […]

Turning to `COC1=C(OC)[C@@H](O)[C@@H](C/C=C(\C)CC/C=C(\C)CCC=C(C)C)[C@H](C)C1=O` [(−)-antroquinonol], the “hypoglycemic efficacy, OGTT blood glucose AUC” value in the assay with C57 BL/6 mice is reported as “had the hypoglycemic efficacy”.

As to `COC1=C(OC)[C@H](O)[C@H](C/C=C(\C)CC/C=C(\C)CCC=C(C)C)[C@@H](C)C1=O` [antroquinonol], in assay [1], the “inhibitory rate of DPP4 activity (compared to the control without treatment)” value is listed as “up to 50%”. The PKA protein level result with PKA protein level is reported as “PKA protein level was expressed”. Moreover, the “hypoglycemic efficacy, OGTT blood glucose AUC (ratio to the control)” value with C57 BL/6 mice (S961-treated mice, antroquinonol 50 mg/kg Bwt p.o., metformin 100 mg/kg as positive control, FIG. 7(A)) is recorded as “had the hypoglycemic efficacy in the condition of insulin resistance through the oral glucose tolerance test (OGTT), similar to Metformin”. In addition, in the assay with DIO ICR mice [2], the “glucose tolerance, OGTT blood glucose AUC, long term” value is “effects similar to Sitagliptin”. Moreover, the “AMPK Thr172 phosphorylation” value in assay [3] was “significantly better efficacy on the phosphorylation of AMPK Thr172 than insulin and metformin”. Besides, the “AKT Thr308 phosphorylation” value in assay [4] was “not”. In addition, the “glucose tolerance, OGTT blood glucose AUC, short term” value in the assay on DIO ICR mice [5] is recorded as “effects similar to Sitagliptin”. Moreover, in the assay with GLUT4 translocation (C2C12, 100 μM of antroquinonol), the “GLUT4 translocation, comparison with metformin” value is “equivalent to 16 mM metformin”. Also, the GLUT4 translocation entry with GLUT4 translocation (C2C12, antroquinonol 50, 100, 150 μM versus insulin 185 μM and metformin 16 mM, 55 min) is “good effect on GLUT4 translocation similar to insulin (Ins), and which is even better than metformin (Met); also recorded: enhanced GLUT4 translocation with dose-dependent manner”.

For `CN(C)C(=N)N=C(N)N` [metformin, reference compound], the “AMPK Thr172 phosphorylation” value in assay [3] is listed as “provided an effect in action to the phosphorylation of AMPK Thr172”. For the same molecule, the “AKT Thr308 phosphorylation” value in assay [4] is reported as “not”.

(+)-antroquinonol: in the assay with C57 BL/6 mice, the “hypoglycemic efficacy, OGTT blood glucose AUC” value is given as “had the hypoglycemic efficacy”.

Consider insulin, for which the “AKT Thr308 phosphorylation” value in assay [4] is given as “induced insulin signaling pathway at the phosphorylation of AKT Thr308”.
